According to PubChem BioAssay AID256 (DTP/NCI, 2004):
Values joined by “and” are separate entries in the source; they are usually repeats but may differ in a detail not shown here. Equal values may be shown once. Inconclusive results and toxic doses are left out. The calls were made as follows: active = survival T/C of 150% or more; inactive = T/C below 125% in these data.

Test system: CD2F1 mice, L1210 leukemia ip, survival T/C
Test: NCI In Vivo Anticancer Drug Screen. Data for tumor model L1210 Leukemia (intraperitoneal) in CD2F1 (CDF1) mice
Conditions: higher = longer survival
In short: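 Mice carrying a transplanted tumor received test compound or vehicle alone. The value is the measurement in the treated group divided by that in the vehicle-treated control group.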

[1] = endpoint: mean survival time, dose: 50.0 mg/kg/injection, schedule: Q01DX009 (ip), vehicle: saline with Tween-80
[2] = endpoint: mean survival time, dose: 100.0 mg/kg/injection, schedule: Q01DX009 (ip), vehicle: saline with Tween-80
[3] = endpoint: mean survival time, dose: 100.0 mg/kg/injection, schedule: Q04DX003 (ip), vehicle: saline with Tween-80
[4] = endpoint: mean survival time, dose: 200.0 mg/kg/injection, schedule: Q04DX003 (ip), vehicle: saline with Tween-80
[5] = endpoint: mean survival time, dose: 400.0 mg/kg/injection, schedule: Q04DX003 (ip), vehicle: saline with Tween-80
[6] = endpoint: mean survival time, dose: 100.0 mg/kg/injection, schedule: Q01DX001 (ip), vehicle: saline with Tween-80
[7] = endpoint: mean survival time, dose: 200.0 mg/kg/injection, schedule: Q01DX001 (ip), vehicle: saline with Tween-80
[8] = endpoint: median survival time, dose: 25.0 mg/kg/injection, schedule: Q01DX009 (ip), vehicle: Klucel (hydroxypropylcellulose) (HPC)
[9] = endpoint: median survival time, dose: 50.0 mg/kg/injection, schedule: Q01DX009 (ip), vehicle: Klucel (hydroxypropylcellulose) (HPC)

Measured: T/C

CC12c3ccccc3C(c3ccccc31)C1C(=O)OC(=O)C12 (stereo not given)
inactive: [1] 95 % of control | [2] 103 % of control

O=C(/C=C/c1ccccc1)SCc1ccccc1
inactive: [3] 96 % of control | [4] 98 % of control | [5] 94 % of control

O=c1[nH]cccc1[N+](=O)[O-]
inactive: [3] 106 % of control | [4] 106 % of control | [5] 101 % of control

CS/C(N)=N\C(=O)N(C)C
inactive: [2] 98 % of control | endpoint: mean survival time, dose: 200.0 mg/kg/injection, schedule: Q01DX009 (ip), vehicle: saline with Tween-80 110 % of control | endpoint: mean survival time, dose: 400.0 mg/kg/injection, schedule: Q01DX009 (ip), vehicle: saline with Tween-80 103 % of control

Nc1ccccc1Cl
inactive: endpoint: mean survival time, dose: 31.25 mg/kg/injection, schedule: Q01DX009 (ip), vehicle: saline with Tween-80 95 % of control | endpoint: mean survival time, dose: 31.25 mg/kg/injection, schedule: Q04DX003 (ip), vehicle: saline with Tween-80 97 % of control | endpoint: mean survival time, dose: 62.5 mg/kg/injection, schedule: Q01DX009 (ip), vehicle: saline with Tween-80 91 % of control | endpoint: mean survival time, dose: 62.5 mg/kg/injection, schedule: Q04DX003 (ip), vehicle: saline with Tween-80 101 % of control | endpoint: mean survival time, dose: 125.0 mg/kg/injection, schedule: Q01DX009 (ip), vehicle: saline with Tween-80 93 % of control | endpoint: mean survival time, dose: 125.0 mg/kg/injection, schedule: Q04DX003 (ip), vehicle: saline with Tween-80 101 % of control

O=C(NNc1ccccc1)C(F)(F)F
inactive: endpoint: mean survival time, dose: 25.0 mg/kg/injection, schedule: Q01DX009 (ip), vehicle: saline with Tween-80 107 % of control | [1] 101 % of control | endpoint: mean survival time, dose: 100.0 mg/kg/injection, schedule: Q04DX003 (ip), vehicle: acetone 93 % of control

O=C1c2ccccc2C(=O)c2c(O)c(CCCN3C(=O)c4ccccc4C3=O)cc(O)c21
inactive: endpoint: mean survival time, dose: 12.5 mg/kg/injection, schedule: Q01DX009 (ip), vehicle: other 89 % of control | endpoint: mean survival time, dose: 25.0 mg/kg/injection, schedule: Q01DX009 (ip), vehicle: other 87 % of control | endpoint: mean survival time, dose: 50.0 mg/kg/injection, schedule: Q01DX009 (ip), vehicle: other 87 % of control | endpoint: mean survival time, dose: 100.0 mg/kg/injection, schedule: Q01DX009 (ip), vehicle: other 89 % of control | endpoint: mean survival time, dose: 200.0 mg/kg/injection, schedule: Q01DX009 (ip), vehicle: other 97 % of control

CCCCSCCN
inactive: endpoint: mean survival time, dose: 25.0 mg/kg/injection, schedule: Q04DX002 (ip), vehicle: saline with Tween-80 94 % of control | endpoint: mean survival time, dose: 50.0 mg/kg/injection, schedule: Q04DX002 (ip), vehicle: saline with Tween-80 94 % of control | endpoint: mean survival time, dose: 100.0 mg/kg/injection, schedule: Q04DX002 (ip), vehicle: saline with Tween-80 102 % of control

COC1=C(OC)C(C(O)CO)OC1=O (stereo not given)
inactive: endpoint: mean survival time, dose: 25.0 mg/kg/injection, schedule: Q01DX009 (ip), vehicle: water 93 % of control | endpoint: mean survival time, dose: 50.0 mg/kg/injection, schedule: Q01DX009 (ip), vehicle: water 89 % of control | endpoint: mean survival time, dose: 100.0 mg/kg/injection, schedule: Q01DX009 (ip), vehicle: water 100 % of control | endpoint: mean survival time, dose: 200.0 mg/kg/injection, schedule: Q01DX009 (ip), vehicle: water 94 % of control | endpoint: mean survival time, dose: 400.0 mg/kg/injection, schedule: Q01DX009 (ip), vehicle: water 100 % of control

Cc1nc(N)[nH]c(=O)c1CCCN(c1ccccc1)S(=O)(=O)c1ccc(N)cc1
inactive: [6] 101 % of control | [7] 89 % of control | endpoint: mean survival time, dose: 400.0 mg/kg/injection, schedule: Q01DX001 (ip), vehicle: saline with Tween-80 89 % of control

O=C(O)C1C2C/C(=N\O)C(C2)C1C(=O)O (stereo not given)
inactive: endpoint: mean survival time, dose: 50.0 mg/kg/injection, schedule: Q04DX003 (ip), vehicle: saline 94 % of control | endpoint: mean survival time, dose: 100.0 mg/kg/injection, schedule: Q04DX003 (ip), vehicle: saline 101 % of control | endpoint: mean survival time, dose: 200.0 mg/kg/injection, schedule: Q04DX003 (ip), vehicle: saline 103 % of control

C[N+](C)(C)CCC(=O)c1ccc(C(=O)CC[N+](C)(C)C)cc1
inactive: endpoint: mean survival time, dose: 50.0 mg/kg/injection, schedule: Q04DX002 (ip), vehicle: saline 96 % of control | [6] 100 % of control | endpoint: mean survival time, dose: 100.0 mg/kg/injection, schedule: Q04DX002 (ip), vehicle: saline 96 % of control | [7] 94 % of control | endpoint: mean survival time, dose: 200.0 mg/kg/injection, schedule: Q04DX002 (ip), vehicle: saline 96 % of control

c1coc(CNC2=NCCO2)c1
inactive: endpoint: mean survival time, dose: 100.0 mg/kg/injection, schedule: Q01DX001 (ip), vehicle: other 95 % of control | endpoint: mean survival time, dose: 200.0 mg/kg/injection, schedule: Q01DX001 (ip), vehicle: other 103 % of control | endpoint: mean survival time, dose: 400.0 mg/kg/injection, schedule: Q01DX001 (ip), vehicle: other 90 % of control

CCCCCC[C@H]([C@H](C)O)n1cnc2c(N)ncnc21
inactive: endpoint: mean survival time, dose: 0.38 mg/kg/injection, schedule: Q03HX024 (ip), vehicle: saline with Tween-80 92 % of control | endpoint: mean survival time, dose: 0.57 mg/kg/injection, schedule: Q03HX024 (ip), vehicle: saline with Tween-80 96 % of control | endpoint: mean survival time, dose: 1.3 mg/kg/injection, schedule: Q03HX024 (ip), vehicle: saline with Tween-80 102 % of control | endpoint: mean survival time, dose: 2.0 mg/kg/injection, schedule: Q03HX024 (ip), vehicle: saline with Tween-80 98 % of control | endpoint: mean survival time, dose: 3.0 mg/kg/injection, schedule: Q03HX024 (ip), vehicle: saline with Tween-80 96 % of control | endpoint: mean survival time, dose: 4.5 mg/kg/injection, schedule: Q03HX024 (ip), vehicle: saline with Tween-80 98 % of control | endpoint: mean survival time, dose: 5.0 mg/kg/injection, schedule: Q03HX024 (ip), vehicle: saline with Tween-80 104 % of control | endpoint: mean survival time, dose: 6.25 mg/kg/injection, schedule: Q01DX009 (ip), vehicle: Klucel (hydroxypropylcellulose) (HPC) 95 % of control and 100 % of control | endpoint: mean survival time, dose: 10.0 mg/kg/injection, schedule: Q03HX024 (ip), vehicle: saline with Tween-80 107 % of control | endpoint: mean survival time, dose: 12.5 mg/kg/injection, schedule: Q01DX009 (ip), vehicle: Klucel (hydroxypropylcellulose) (HPC) 98 % of control and 100 % of control | endpoint: mean survival time, dose: 25.0 mg/kg/injection, schedule: Q01DX009 (ip), vehicle: Klucel (hydroxypropylcellulose) (HPC) 100 % of control and 101 % of control | endpoint: mean survival time, dose: 25.0 mg/kg/injection, schedule: Q03HX024 (ip), vehicle: saline with Tween-80 105 % of control | endpoint: mean survival time, dose: 50.0 mg/kg/injection, schedule: Q01DX009 (ip), vehicle: Klucel (hydroxypropylcellulose) (HPC) 97 % of control and 100 % of control | endpoint: mean survival time, dose: 50.0 mg/kg/injection, schedule: Q03HX024 (ip), vehicle: saline with Tween-80 105 % of control | endpoint: mean survival time, dose: 100.0 mg/kg/injection, schedule: Q01DX009 (ip), vehicle: Klucel (hydroxypropylcellulose) (HPC) 95 % of control and 100 % of control | endpoint: mean survival time, dose: 100.0 mg/kg/injection, schedule: Q03HX024 (ip), vehicle: saline with Tween-80 96 % of control | endpoint: mean survival time, dose: 200.0 mg/kg/injection, schedule: Q01DX009 (ip), vehicle: Klucel (hydroxypropylcellulose) (HPC) 100 % of control | [8] 96 % of control | [9] 101 % of control | endpoint: median survival time, dose: 100.0 mg/kg/injection, schedule: Q01DX009 (ip), vehicle: Klucel (hydroxypropylcellulose) (HPC) 97 % of control

C=C(Cl)C(=NC(C)(C)C)Nc1ccccc1C
inactive: endpoint: median survival time, dose: 3.12 mg/kg/injection, schedule: Q01DX009 (ip), vehicle: Klucel (hydroxypropylcellulose) (HPC) 101 % of control | endpoint: median survival time, dose: 6.25 mg/kg/injection, schedule: Q01DX009 (ip), vehicle: Klucel (hydroxypropylcellulose) (HPC) 109 % of control | endpoint: median survival time, dose: 12.5 mg/kg/injection, schedule: Q01DX009 (ip), vehicle: Klucel (hydroxypropylcellulose) (HPC) 118 % of control | [8] 114 % of control | [9] 114 % of control | endpoint: median survival time, dose: 50.0 mg/kg/injection, schedule: Q01DX009 (ip), vehicle: saline 103 % of control | endpoint: median survival time, dose: 100.0 mg/kg/injection, schedule: Q01DX009 (ip), vehicle: saline 108 % of control | endpoint: median survival time, dose: 200.0 mg/kg/injection, schedule: Q01DX009 (ip), vehicle: saline 111 % of control
